What was measured:
Experiment in all cases: relative viability (nuclei count vs DMSO), 5 days (fraction); higher = more cells survive
[1] = compound: CC(C)C[C@H](NC(=O)[C@H](Cc1ccccc1)NC(=O)c1cnccn1)B(O)O [Bortezomib] + C[C@]1(O)C[C@@H](c2nc(-c3ccc4ccc(-c5ccccc5)nc4c3)c3c(N)nccn32)C1 [Linsitinib] (partner 1 µM)
Method in brief: (§1)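 One day after seeding in 1536-well plates, lung cancer cell lines were dosed by pin tool. Dosing was either single-drug or a fixed anchor-drug dose plus five library-drug doses (not always all listed) in √10 steps. After 5 days, nuclei were stained in one fix-and-stain step and counted on 4× images, and relative viability is the nuclei count of treated wells over that of vehicle wells, given as the median of duplicate plates.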

[2] = compound: CC(C)C[C@H](NC(=O)[C@H](Cc1ccccc1)NC(=O)c1cnccn1)B(O)O [Bortezomib] + CCNC(=O)c1noc(-c2cc(C(C)C)c(O)cc2O)c1-c1ccc(CN2CCOCC2)cc1 [Luminespib] (partner 0.01 µM)
Method in brief: as §1

[3] = compound: CC(C)C[C@H](NC(=O)[C@H](Cc1ccccc1)NC(=O)c1cnccn1)B(O)O [Bortezomib] + COc1cccc2cc(-c3nc([C@H]4CC[C@H](C(=O)O)CC4)n4ncnc(N)c34)[nH]c12 [OSI-027] (partner 0.5 µM)
Method in brief: as §1

[4] = compound: CC1=CC(=NN1)NC2=CC(=NC(=N2)/C=C/C3=CC=CC=C3)N4CCN(CC4)C + CC(=O)c1c(C)c2cnc(Nc3ccc(N4CCNCC4)cn3)nc2n(C2CCCC2)c1=O [Palbociclib] (partner 0.5 µM)
Method in brief: as §1

Row | Cell Line | relative viability ([1]; first compound 0.0002 µM) | relative viability ([1]; first compound 0.000632 µM) | relative viability ([1]; first compound 0.002 µM) | relative viability ([1]; first compound 0.006325 µM) | relative viability ([1]; first compound 0.02 µM) | relative viability ([2]; first compound 0.0002 µM) | relative viability ([2]; first compound 0.000632 µM) | relative viability ([2]; first compound 0.002 µM) | relative viability ([2]; first compound 0.006325 µM) | relative viability ([2]; first compound 0.02 µM) | relative viability ([3]; first compound 0.0002 µM) | relative viability ([3]; first compound 0.000632 µM) | relative viability ([3]; first compound 0.002 µM) | relative viability ([3]; first compound 0.006325 µM) | relative viability ([3]; first compound 0.02 µM) | relative viability ([4]; first compound 0.08 µM) | relative viability ([4]; first compound 0.253 µM) | relative viability ([4]; first compound 0.8 µM) | relative viability ([4]; first compound 2.53 µM) | relative viability ([4]; first compound 8 µM)
1 | NCI-H596 | 0.894 | 0.813 | 1.09 | 0.233 | 0.18 | 0.942 | 0.73 | 0.609 | 0.244 | 0.2 | 0.804 | 0.619 | 0.766 | 0.21 | 0.195 | – | – | – | – | –
2 | NCI-H1299 | 1 | 0.917 | 1.1 | 0.452 | 0.118 | – | – | – | – | – | – | – | – | – | – | – | – | – | – | –
3 | NCI-H1563 | 1.25 | 1.25 | 1.02 | 0.534 | 0.466 | 0.47 | 0.527 | 0.562 | 0.449 | 0.331 | 0.795 | 0.751 | 0.653 | 0.519 | 0.485 | – | – | – | – | –
4 | NCI-H1623 | – | – | – | – | – | 0.498 | 0.496 | 0.551 | 0.364 | 0.277 | 0.434 | 0.473 | 0.468 | 0.36 | 0.295 | – | – | – | – | –
5 | NCI-H1648 | – | – | – | – | – | – | – | – | – | – | 0.256 | 0.293 | 0.251 | 0.256 | 0.229 | 0.262 | 0.25 | 0.238 | 0.256 | 0.271
6 | NCI-H1650 | – | – | – | – | – | 0.186 | 0.185 | 0.177 | 0.203 | 0.217 | 0.657 | 0.383 | 0.205 | 0.132 | 0.133 | 0.285 | 0.414 | 0.351 | 0.201 | 0.0872
7 | NCI-H1703 | 1.07 | 0.438 | 0.252 | 0.0867 | 0.0799 | – | – | – | – | – | – | – | – | – | – | – | – | – | – | –
8 | NCI-H2170 | – | – | – | – | – | 0.46 | 0.534 | 0.744 | 0.516 | 0.202 | 0.688 | 0.463 | 0.69 | 0.566 | 0.182 | 0.401 | 0.396 | 0.387 | 0.31 | 0.144
9 | NCI-H2342 | – | – | – | – | – | 1.01 | 0.748 | 0.699 | 0.791 | 0.382 | 0.656 | 0.524 | 0.616 | 0.634 | 0.587 | 0.531 | 0.517 | 0.532 | 0.527 | 0.492
10 | SW 900 | – | – | – | – | – | 0.167 | 0.198 | 0.184 | 0.163 | 0.16 | 0.527 | 0.414 | 0.143 | 0.0928 | 0.108 | 0.514 | 0.542 | 0.497 | 0.284 | 0.12

Reference: the supplement of paper PMC10307832
